According to ChEMBL document CHEMBL1201862, “PubChem BioAssay data set” (2004):
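Five compound concentrations were applied to cells in 96-well plates for 48 hours; endpoints were derived by simple linear interpolation of the resulting dose-response curve. The concentration for 50% growth inhibition is given as GI50.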 Calls of active or inactive are those of the source. No stated cut-off is given here; in the data, active = GI50 up to about 1.1 µM and inactive = higher.

Experiments:
Experiment in all cases: NCI-60 cell line screen, 48 h
MDA-N = system: MDA-N
DMS-114 = system: DMS-114
DMS-273 = system: DMS-273
HOP-18 = system: HOP-18
M19-MEL = system: M19-MEL
LXFL 529 = system: LXFL 529
BT-549 = system: BT-549
RXF 631 = system: RXF 631
KM-20L2 = system: KM-20L2

Measured: GI50

O=C1CCC(c2ccccc2)=NN1c1nc2ccccc2s1
inactive: MDA-N 27.9 µM | DMS-114 31 µM | DMS-273 40.2 µM | HOP-18 18.8 µM | M19-MEL 28.3 µM | LXFL 529 41.8 µM | BT-549 27.6 µM

CCCn1c(SCC)c2ccccc2c1-c1nc(F)nc(F)n1
inactive: DMS-114 > 100 µM | DMS-273 > 100 µM | RXF 631 > 100 µM | M19-MEL > 100 µM | KM-20L2 > 100 µM | LXFL 529 > 100 µM

CCCCCCCC(=O)O[C@H]1[C@H]2[C@@H](CC1(C)C)C(=O)[C@]13O[C@H]1C(=O)[C@]1(CO1)[C@]23C
inactive: MDA-N 8.95 µM | DMS-114 3.41 µM | DMS-273 5.96 µM | HOP-18 5.33 µM | RXF 631 17.8 µM | M19-MEL 3.41 µM | KM-20L2 4.89 µM | LXFL 529 1.58 µM | BT-549 15.5 µM

CC(C)c1cccc(=O)c(O)c1
inactive: MDA-N 2.18 µM | DMS-114 2.24 µM | DMS-273 4 µM | HOP-18 1.4 µM | RXF 631 1.25 µM | M19-MEL 2.15 µM | KM-20L2 2.85 µM | LXFL 529 1.47 µM

Cc1nc2c(C)c3c([nH]c4ccc(Cl)cc43)c(C)c2c(O)c1C
inactive: MDA-N 6.73 µM | DMS-114 19.8 µM | DMS-273 9.02 µM | HOP-18 33.8 µM | M19-MEL 6.18 µM | BT-549 14.9 µM

Cn1cccc1/C=C/c1cc(Br)c(/C=C/c2cccn2C)cc1Br
inactive: DMS-114 11.6 µM | DMS-273 18.5 µM | HOP-18 5 µM | RXF 631 13.9 µM | M19-MEL 18.4 µM | KM-20L2 16.3 µM | LXFL 529 12.3 µM

COc1ccc(C(=O)C(C(=O)CCC(=O)Nc2cccc(Cl)c2)c2ccc(OC)cc2)cc1 (centres undefined)
inactive: DMS-273 > 100 µM | HOP-18 53.3 µM | RXF 631 > 100 µM | M19-MEL > 100 µM | KM-20L2 > 100 µM | LXFL 529 > 100 µM

Cc1cc2c(cc1C)[n+]([O-])c(C(=O)C/C(=N/OCCCc1ccccc1)C(=O)Nc1cc(Cl)ccc1Cl)c(C)[n+]2[O-]
inactive: DMS-273 > 100 µM | HOP-18 > 100 µM | RXF 631 > 100 µM | M19-MEL > 100 µM | KM-20L2 > 100 µM | LXFL 529 > 100 µM

NNC(=O)/C(=C/c1cccc([N+](=O)[O-])c1)NC(=O)c1ccccc1
inactive: DMS-114 > 100 µM | DMS-273 > 100 µM | HOP-18 > 100 µM | RXF 631 > 100 µM | M19-MEL > 100 µM | LXFL 529 > 100 µM

Cc1cc(Br)ccc1/N=N/c1c(C)nn(-c2ccccc2)c1-c1ccccc1
inactive: DMS-114 89.5 µM | DMS-273 34.3 µM | HOP-18 > 100 µM | M19-MEL > 100 µM | LXFL 529 45.8 µM

COC1C=CC(C(=O)[N+]2=Cc3[nH]c4ccccc4c3CC2)O1 (centres undefined)
inactive: DMS-114 66.4 µM | DMS-273 82.2 µM | HOP-18 > 100 µM | RXF 631 > 100 µM | M19-MEL > 100 µM | KM-20L2 > 100 µM | LXFL 529 98.2 µM

[N-]=[N+]=NC1(Cc2ccccc2)C(=O)c2cccc3c2N(CCC3)C1=O (centres undefined)
inactive: DMS-114 > 100 µM | DMS-273 > 100 µM | HOP-18 > 100 µM | M19-MEL > 100 µM | LXFL 529 > 100 µM

N/C(=N\O)N/N=C/c1cccc(F)c1
inactive: DMS-114 22.9 µM | DMS-273 48.9 µM | HOP-18 25.1 µM | RXF 631 26.1 µM | M19-MEL 48.3 µM | KM-20L2 32.2 µM | LXFL 529 27 µM

c1ccc(SCCP(CCP(c2ccccc2)c2ccccc2)c2ccccc2)cc1 (centres undefined)
inactive: MDA-N 7.52 µM | DMS-114 10.2 µM | DMS-273 1.73 µM | HOP-18 2.16 µM | M19-MEL 10.7 µM | LXFL 529 3.33 µM | BT-549 6.81 µM

CCN1C(=O)N(C)C(O)c2c1nc1ccccn1c2=O (centres undefined)
inactive: DMS-114 7.4 µM | DMS-273 19.5 µM | HOP-18 22.3 µM | M19-MEL 28.4 µM | KM-20L2 25.5 µM | LXFL 529 29 µM

CCOC(=O)C1=C(C)N2CCOC2(C)C(C(=O)OC)C1c1cccc(Cl)c1 (centres undefined)
inactive: DMS-114 54 µM | DMS-273 > 100 µM | HOP-18 > 100 µM | M19-MEL > 100 µM | KM-20L2 > 100 µM | LXFL 529 > 100 µM

COC1(OC)CC2OC1C1N=NN(C(=O)OC(C)(C)C)C21 (centres undefined)
inactive: DMS-114 67 µM | DMS-273 > 100 µM | HOP-18 > 100 µM | RXF 631 > 100 µM | M19-MEL > 100 µM | KM-20L2 > 100 µM | LXFL 529 > 100 µM

COc1ccc2c(c1OC)C(C=C(c1ccccc1)c1ccccc1)CN(C)C2 (centres undefined)
inactive: DMS-114 13.9 µM | DMS-273 17.5 µM | HOP-18 17.6 µM | RXF 631 17.4 µM | M19-MEL 30.5 µM | KM-20L2 10.3 µM | LXFL 529 14.4 µM

O=C1CC(c2c(-c3ccccc3)[nH]c3ccccc23)C(=O)N1c1ccccc1 (centres undefined)
inactive: DMS-114 49.5 µM | DMS-273 > 100 µM | RXF 631 56.8 µM | M19-MEL > 100 µM | KM-20L2 95.1 µM | LXFL 529 57.1 µM

CCOC(=O)/C(C#N)=C(O)/C(=C/c1ccccc1Cl)NC(=O)c1ccccc1
inactive: DMS-114 > 100 µM | DMS-273 31.5 µM | HOP-18 > 100 µM | M19-MEL > 100 µM | KM-20L2 > 100 µM | LXFL 529 > 100 µM

O=C1C2C3C=C4c5ccccc5N(c5ccccc5)C4(C2C(=O)N1c1ccccc1)C1C(=O)N(c2ccccc2)C(=O)C31 (centres undefined)
inactive: DMS-114 > 100 µM | HOP-18 > 100 µM | RXF 631 > 100 µM | M19-MEL 5.13 µM | KM-20L2 > 100 µM | LXFL 529 > 100 µM

CCOC(=O)C1=C(C)N(NC(=O)Nc2ccccc2)C2(N)N(NC(=O)Nc3ccccc3)C(C)=C(C(=O)OCC)C12C(=O)OCC (centres undefined)
inactive: DMS-114 25.5 µM | DMS-273 41.9 µM | HOP-18 26.7 µM | RXF 631 51.9 µM | M19-MEL 43.3 µM | KM-20L2 75.9 µM | LXFL 529 57 µM

CCCCCCCCCCCCCCCCc1c(O)nc(NN)nc1C(=O)OC
inactive: DMS-114 > 50 µM | DMS-273 > 50 µM | HOP-18 > 50 µM | RXF 631 > 50 µM | M19-MEL > 50 µM | KM-20L2 > 50 µM | LXFL 529 > 50 µM

Cc1[nH]c2ccccc2c1C1Cc2ccccc2N1C(=O)/C=C\C(=O)O (centres undefined)
inactive: DMS-114 33.4 µM | DMS-273 58.2 µM | RXF 631 > 100 µM | M19-MEL 34 µM | KM-20L2 81.1 µM | LXFL 529 21.6 µM

Cc1ccc(SSCCCCS(=O)O)cc1
inactive: DMS-114 11.5 µM | DMS-273 19.6 µM | HOP-18 41.9 µM | RXF 631 11.7 µM | M19-MEL 12.2 µM | KM-20L2 20.4 µM | LXFL 529 12.9 µM

CN(C)CCC(=O)c1ccccc1
inactive: DMS-114 > 39.1 µM | DMS-273 > 58.2 µM | HOP-18 > 56.4 µM | M19-MEL 33.2 µM | KM-20L2 > 43.8 µM | LXFL 529 26.3 µM

CC(=O)OCC(=O)[C@@]12OC(C)(C)O[C@@H]1C[C@H]1[C@@H]3CC(C=O)=C4C=C(OCCCl)CC[C@]4(C)[C@@]3(F)[C@@H](O)C[C@@]12C [FORMOCORTAL]
inactive: DMS-114 > 100 µM | DMS-273 19.9 µM | HOP-18 18.5 µM | M19-MEL 22.3 µM | KM-20L2 11.8 µM
